The results in this text go back to ChEMBL document CHEMBL1147424, “TMC-95A, a reversible proteasome inhibitor, induces neurite outgrowth in PC12 cells” (2004).

The assay deals with PC-12. Description: Neuritogenic activity of compound in PC12 rat pheochromocytoma cells was evaluated at dose of 20 uM; Positive neurite initiation after 16 hour incubation. It counts as functional.

Take `C/C=C\NC(=O)C1NC(=O)[C@H](CC(N)=O)NC(=O)[C@@H](NC(=O)C(=O)[C@@H](C)CC)Cc2ccc(O)c(c2)-c2cccc3c2NC(=O)[C@@]3(O)[C@@H]1O` (stereo partly specified): the Activity was 60%.
